US5484940A, “Substituted 3-indolyl-5-pyrazolone compounds” (priority 1994, dated 1996)

What was measured:
293 751 SWE cells = assay: Cytotoxicity (MTT) in 293 751 SWE cells; type: cell-based, human; conditions: concentration not given
Description: (§1) This screening assay employed cells (K293=human kidney cell line) which were stably transfected with the gene for amyloid precursor protein 751 (APP751) containing the double mutation Lys651 Met652 to Asn651 Leu652 (APP751 numbering) in the manner described in International Patent Application Publication No. 94/10569^1 and Citron et al.^16. This mutation is commonly called the Swedish mutation and the cells, designated as "293 751 SWE", were plated in Coming 96-well plates at 1.5-2.5×10^4 cells per well in Dulbecco's minimal essential media plus 10% fetal bovine serum. Cell number is important in order to achieve β-amyloid ELISA results within the linear range of the assay (~0.2 to 2.5 ng per mL).
Cytotoxic effects of the compounds were measured by a modification of the method of Hansen, et al.^17. To the cells remaining in the tissue culture plate was added 25 μL of a 3,(4,5-dimethylthiazol-2-yl)2,5-diphenyltetrazolium bromide (MTT) stock solution (5 mg/mL) to a final concentration of 1 mg/mL. Cells were incubated at 37° C. for one hour, and cellular activity was stopped by the addition of an equal volume of MTT lysis buffer (20% w/v sodium dodecylsulfate in 50% dimethylformamide, pH 4.7). Complete extraction was achieved by overnight shaking at room temperature. The difference in the OD562nm and the OD650nm was measured in a Molecular Device's UVmax microplate reader as an indicator of the cellular viability.

human cortical neurons = assay: Inhibition of toxicity of β-amyloid peptide to human neuronal cells (alamarBlue); type: cell-based; conditions: 50 μM β-amyloid peptide, 2-3 days; on average where more than one duplicate experiment; compound concentration not stated
Description: The purpose of this test is to determine the effect of 3-indolyl-5-pyrazolone compounds on the toxicity of β-amyloid peptide to neuronal cells.
Primary Human Cortical Cell Culture
Primary human cortical cultures were prepared using a modification of the procedure described by Seubert, et al.^21 Following filtration through Nitex nylon screens, cortical tissue was resuspended in a trypsin/EDTA solution (0.05% trypsin+0.53 mM EDTA in HBSS; GIBCO Laboratories, Grand Island, N.Y., USA) and kept at 37° C. for 20 minutes. The trypsin was then inactivated by resuspending the cells in serum-containing medium (MEM/FBS: Modified Eagles' Medium (MEM) containing 1% glucose, 1 mM sodium pyruvate, 1 mM glutamine, and supplemented with 10% fetal bovine serum (GIBCO). Cells were then pelleted by centrifugation and resuspended in a chemically-defined medium (MEM/B27: MEM containing B27 supplement in place of FBS; GIBCO). Polyethyleneimine (PEI; Sigma Chemical Company, St. Louis, Mo., USA)-coated 6.4 mm (96-well) dishes were rinsed once with MEM/FBS, and then seeded at 0.75 to 1.25×10^5 cells per well in 0.1 mL MEM/B27. Cultures were maintained in a H2 O-saturated incubator with an atmosphere of 95% air/5% CO 2 at 37° C. The culture medium was exchanged twice weekly. Cell viability was visually assessed by phase contrast microscopy and quantified by measuring the reduction of alamarBlue™ (Alamar Biosciences, Inc., Sacramento, Calif., USA).
β-amyloid peptide stock solutions were prepared as 1 mM stocks in sterile, doubly distilled water immediately prior to addition to cultures. Rat cortical neurons were exposed to β-amyloid peptide by removing the culture medium and replacing it with DMEM/N2 (GIBCO Laboratories,Grand Island, N.Y., USA) containing 10 to 20 μM β-amyloid peptide. Human cortical neurons were exposed to test compound plus β-amyloid peptide by removing the culture medium and replacing it with MEM containing 50 μM β-amyloid peptide. Cultures were maintained for 2-3 days before neuronal survival was quantified using alamarBlue™.
The alamarBlue™ assay incorporates a fluorometric/colorimetric metabolic indicator (Alamar Biosciences, Inc. Sacramento, Calif., USA). Viable cells convert alamarBlue™ from an oxidized (non-fluorescent, blue) form to a reduced (fluorescent, red) form. Assays were preformed by replacing the culture media with a 10% alamarBlue™ solution in DMEM (rat cortical cultures) or MEM (human cortical cultures).

[1] = test system: β-amyloid peptide production; assay: Cellular screen for inhibitors of β-amyloid production (ELISA, 293 751 SWE cells); type: cell-based, human; conditions: 2 h pretreatment + 2 h, normalized for cytotoxicity (MTT), concentration not given
Description: as §1
Following overnight incubation at 37° C. in an incubator equilibrated with 10% carbon dioxide, media were removed and replaced with 200 μL of a substituted 3-indolyl-5-pyrazolone (drug) containing media per well for a two hour pretreatment period and cells were incubated as above.
At the end of the pretreatment period, the media were again removed and replaced with fresh drag containing media as above and cells were incubated for an additional two hours. After treatment, plates were centrifuged in a Beckman GPR at 1200 rpm for five minutes at room temperature to pellet cellular debris from the conditioned media. From each well, 100 μL of conditioned media or appropriate dilutions thereof were transferred into an ELISA plate precoated with antibody 266 against amino acids 13-28 of β-amyloid peptide as described in International Patent Application Publication No. 94/10569^1 and stored at 4° C. overnight. An ELISA assay employing labelled antibody 6C6 against amino acids 1-16 of β-amyloid peptide was run the next day to measure the amount of β-amyloid peptide produced.
The results of the β-amyloid peptide ELISA were fit to a standard curve and expressed as ng/mL β-amyloid peptide. […] All results are the mean and standard deviation of at least six replicate assays.

SMILES | cytotoxic effect on the 293 751 SWE cells (293 751 SWE cells) | inhibition of the toxicity of β-amyloid peptide to human neuronal cells (human cortical neurons) | reduction of β-amyloid peptide production as compared to control [1]
COc1ccc2c(c1)c(CC1=NN(c3cccc(F)c3)C(=O)C1)c(C)n2C(=O)c1ccc(Cl)cc1 [Example 32, 3-[1-(4-chlorobenzoyl)-5-methoxy-2-methyl-3-indolylmethyl]-1-(3-fluorophenyl)-5-pyrazolone] | did not have a significant cytotoxic effect | at least 25% | at least 20%
O=C1CC(Cc2cn(C(=O)c3ccc(Cl)cc3)c3ccccc23)=NN1C1CCCCC1 [Example 19, 3-[1-(4-chlorobenzoyl)-3-indolylmethyl]-1-cyclohexyl-5-pyrazolone] | did not have a significant cytotoxic effect | at least 25% | at least 20%
COc1ccc2c(c1)c(CC1=NN(C3CCC3)C(=O)C1)c(C)n2C(=O)c1ccc(Cl)cc1 [Example 10, 3-[1-(4-chlorobenzoyl)-5-methoxy-2-methyl-3-indolylmethyl]-1-cyclobutyl-5-pyrazolone] | – | at least 25% | –
COc1ccc2c(c1)c(CC1=NN(C3CCCCC3)C(=O)C1=Cc1ccccc1)c(C)n2C(=O)c1ccc(Cl)cc1 [Example 45, 3-[1-(4-chlorobenzoyl)-5-methoxy-2-methyl-3-indolylmethyl]-1-cyclohexyl-4-benzylidene-5-pyrazolone] | – | < 25% | < 20%
COc1ccc2c(c1)c(CC1=NN(c3cccc(N)c3)C(=O)C1)c(C)n2C(=O)c1ccc(Cl)cc1 [Example 40, 3-[1-(4-chlorobenzoyl)-5-methoxy-2-methyl-3-indolylmethyl]-1-(3-aminophenyl)-5-pyrazolone] | – | at least 25% | < 20%
Cc1c(CC2=NN(C3CCCCC3)C(=O)C2)c2ccccc2n1C(=O)c1ccc(Cl)cc1 [Example 22, 3-[1-(4-chlorobenzoyl)-2-methyl-3-indolylmethyl]-1-cyclohexyl-5-pyrazolone] | did not have a significant cytotoxic effect | – | at least 20%
COc1ccc2c(c1)c(CC1=NN(C3CCCCC3)C(=O)C1C)c(C)n2C(=O)c1ccc(Cl)cc1 (stereo not drawn) [Example 43, 3-[1-(4-chlorobenzoyl)-5-methoxy-2-methyl-3-indolylmethyl]-1-cyclohexyl-4-methyl-5-pyrazolone] | did not have a significant cytotoxic effect | – | at least 20%
COc1ccc2c(c1)c(CC1=NN(C3CCCCC3)C(=O)C1(C)C)c(C)n2C(=O)c1ccc(Cl)cc1 [Example 44, 3-[1-(4-chlorobenzoyl)-5-methoxy-2-methyl-3-indolylmethyl]-1-cyclohexyl-4,4-dimethyl-5-pyrazolone] | did not have a significant cytotoxic effect | – | at least 20%
COc1ccc2c(c1)c(CC1=NN(C3CCCCCC3)C(=O)C1)c(C)n2C(=O)c1ccc(Cl)cc1 [Example 12, 3-[1-(4-chlorobenzoyl)-5-methoxy-2-methyl-3-indolylmethyl]-1-cycloheptyl-5-pyrazolone] | did not have a significant cytotoxic effect | – | at least 20%
CCCC(=O)n1c(C)c(CC2=NN(C3CCCCC3)C(=O)C2)c2cc(OC)ccc21 [Example 60, 3-[1-butanoyl-5-methoxy-2-methyl-3-indolylmethyl]-1-cyclohexyl-5-pyrazolon] | did not have a significant cytotoxic effect | – | at least 20%
